Data as given in patent publication US11484529B2, “Desmethylanethole trithione derivatives for the treatment of diseases linked to mitochondrial reactive oxygen species (ROS) production” (OP2 Drugs, priority 2017, dated 2022).
Like-named read-outs stand apart in the source and are kept apart here.

What was measured:
site IQ of complex I = site IQ of complex I (Rattus norvegicus, UniProt A6K8N6+P03889+Q641Y2); test: Mitochondrial ROS/H2O2 production (Amplex Red/HRP), glutamate+malate+succinate with ATR, no inhibitor; format: biochemical
Procedure: Rates of ROS/H2O2 production from heart mitochondria were assessed through the oxidation of the colorless, non-fluorescent indicator Amplex Red in the presence of exogenous horseradish peroxidase (HRP, EC 1.11.1.7, Sigma). H2O2 reacts with Amplex Red in a 1:1 stoichiometry, yielding the fluorescent compound resorufin (excitation: 560 nm; emission: 585 nm) which is stable once formed. Fluorescence was measured continuously with a spectro-fluorometer equipped with temperature control and stirring (SAFAS Xenius, Monaco). Isolated mitochondria (0.1 mg/mL) were incubated in the same experimental buffer than previously, supplemented with 15 μM Amplex Red and 10 μg/mL HRP. Glutamate (5 mM)/malate (2.5 mM) together with succinate (5 mM) were used as complex I and complex II substrates, respectively. Experiments were conducted under non-phosphorylating conditions in the presence of 15 μM atractyloside, i.e., under state IV conditions where […]. Afterwards, rotenone (1.5 μM), antimycin A (2 μM), and myxothiazol (0.2 μM) were sequentially added to inhibit the redox centers within the electron transfer chain (FIG. 2), namely sites IQ, IF (with rotenone), IIIQi (with antimycin A) and IIIQO (with myxothiazol). Assay was finally calibrated with known amounts of H2O2 (steps of 300 nM), in the presence of all relevant compounds, including AOL. The control test of the absence of effect of AOL on the Amplex Red assay itself and NAD(P)H oxidase ROS/H2O2 production was carried out in the absence of cardiac mitochondria and the presence of NAD(P)H oxidase (EC 1.6.3.3, 5 mU/mL, Sigma) and NADH (100 μM) solutions.
Rates of ROS/H2O2 production from heart mitochondria were assessed through the oxidation of the colorless, non-fluorescent indicator Amplex Red in the presence of exogenous horseradish peroxidase (HRP, EC 1.11.1.7, Sigma). H2O2 reacts with Amplex Red in a 1:1 stoichiometry, yielding the fluorescent compound resorufin (excitation: 560 nm; emission: 585 nm) which is stable once formed. Fluorescence was measured continuously with a spectro-fluorometer equipped with temperature control and stirring (SAFAS Xenius, Monaco).
Isolated mitochondria (0.1 mg/mL) were incubated in the same experimental buffer than previously, supplemented with 15 μM Amplex Red and 10 μg/mL HRP. Glutamate (5 mM)/malate (2.5 mM) together with succinate (5 mM) were used as complex I and complex II substrates, respectively. Experiments were conducted under non-phosphorylating conditions in the presence of 15 μM atractyloside. Afterwards, rotenone (1.5 μM), antimycin A (2 μM), and myxothiazol (0.2 μM) were sequentially added to inhibit the redox centers within the electron transfer chain (see FIG. 2), namely sites IQ, IF (with rotenone), IIIQi (with antimycin A) and IIIQO (with myxothiazol). Assay was finally calibrated with known amounts of H2O2 (steps of 300 nM), in the presence of all relevant compounds, including AOX. The control test of the absence of effect of AOL, AOX and Oltipraz on the Amplex Red assay itself and NAD(P)H oxidase […] production was carried out in the absence of cardiac mitochondria and the presence of NAD(P)H oxidase (EC 1.6.3.3, 5 mU/mL, Sigma) and NADH (100 μM) solutions.

site IQ = test: ROS/H2O2 production, site targeted individually (96-well Amplex Red), 10 mM succinate alone; format: biochemical, rat; details: 0 to 80 μM; effect at concentrations as low as 2.5 μM
Procedure: After freshly isolating mitochondria from rat heart, then measuring protein quantity of the mitochondrial suspension, H2O2 production in response to the exogenous addition of increasing concentrations of AOL, AOX and Oltipraz was measured fluorimetrically with Amplex Red and horseradish peroxidase (HRP).
The two major sites of mitochondrial ROS/H2O2 production were targeted individually using the combination of succinate (energy substrate of respiratory complex 2) and known inhibitors of respiratory chain, namely for site IQ, 10 mM succinate alone (CCCP as positive control) and for site IIIQouter, 10 mM succinate, 4 μM rotenone and 2.5 μM antimycin A (myxothiazol as positive control). These “reaction” solutions were designed to generate maximal rates of ROS/H2O2 production predominantly from a single site within the chain (Quinlan et al. 2013. Redox Biol. 1:304-12).
For measurement, a working solution of 50 μM Amplex red reagent and 20 μg/ml HRP was mixed to the reaction buffer into the corresponding wells of a 96-well plate (Greiner 96 F-bottom), in the absence or presence of increasing concentrations (from 0 to 80 μM) of AOL, AOX or Oltipraz. Addition of mitochondria to a final concentration of 0.125 mg/mL per well initiated the assay. The appropriate total volume per microplate well was 200 μL.
Plates were incubated in the dark at room temperature for 20-25 minutes. A double orbital shaking (100 rpm-3 seconds) was applied before reading the endpoint fluorescence values on a CLARIOstar plate reader (BMG LABTECH GmbH, Germany). In fact, H2O2 reacts with Amplex Red in a 1:1 stoichiometry, yielding the fluorescent compound resorufin that was analyzed using the following optic settings (excitation wavelength at 546-20 nm; emission at 600-40 nm; gain: 750).
Also, an H2O2 standard curve, with concentrations ranging from 0 to 5 μM, was prepared in the experimental buffer that consisted in (in mM): 140 sucrose, 100 KCl, 1 EGTA, 20 MgCl2, 10 KH2PO4, and 1 g/L (w/v) BSA essentially fatty acid free (pH 7.2). […]

Chain of site IQ of complex I (A6K8N6 entry or part of it): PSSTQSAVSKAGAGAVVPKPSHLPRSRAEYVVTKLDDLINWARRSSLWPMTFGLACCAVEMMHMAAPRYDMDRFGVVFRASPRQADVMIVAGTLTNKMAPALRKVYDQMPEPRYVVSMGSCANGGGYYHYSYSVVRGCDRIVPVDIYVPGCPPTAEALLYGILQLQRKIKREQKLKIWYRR
Chain of site IQ of complex I (P03889 whole entry): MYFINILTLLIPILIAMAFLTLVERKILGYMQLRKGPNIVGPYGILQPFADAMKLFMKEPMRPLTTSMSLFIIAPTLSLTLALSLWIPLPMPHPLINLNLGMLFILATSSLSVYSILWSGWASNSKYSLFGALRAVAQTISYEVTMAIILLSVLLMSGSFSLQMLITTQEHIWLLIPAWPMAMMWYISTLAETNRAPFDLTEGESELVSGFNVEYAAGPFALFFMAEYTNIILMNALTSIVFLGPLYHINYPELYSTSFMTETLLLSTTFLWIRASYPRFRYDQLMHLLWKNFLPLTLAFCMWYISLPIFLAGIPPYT
Chain of site IQ of complex I (Q641Y2 34-463): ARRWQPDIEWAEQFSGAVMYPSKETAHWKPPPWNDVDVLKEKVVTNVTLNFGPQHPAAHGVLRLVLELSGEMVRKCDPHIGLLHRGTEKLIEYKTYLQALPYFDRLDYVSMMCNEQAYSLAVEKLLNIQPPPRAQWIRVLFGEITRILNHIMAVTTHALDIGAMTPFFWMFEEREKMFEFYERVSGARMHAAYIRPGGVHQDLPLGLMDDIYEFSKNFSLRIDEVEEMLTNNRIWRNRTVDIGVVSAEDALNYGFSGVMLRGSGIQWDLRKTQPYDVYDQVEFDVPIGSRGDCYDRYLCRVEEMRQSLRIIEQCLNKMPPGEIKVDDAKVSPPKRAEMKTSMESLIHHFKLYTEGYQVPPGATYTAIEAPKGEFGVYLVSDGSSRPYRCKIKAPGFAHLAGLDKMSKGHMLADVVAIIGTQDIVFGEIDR

## COc1ccc(-c2cc(=S)ss2)cc1 [AOL, 5-(4-methoxyphenyl)-3H-1,2-dithiole-3-thione]
Site IQ of complex I; AOL 5 to 80 μM, glutamate, malate, succinate, only ATR present
  decrease of ROS/H2O2 production measured in the absence of inhibitor: approximately 80%
Site IQ
  inhibition of ROS production in site IQ: strongly inhibit the ROS production by complex I

## Oc1ccc(-c2cc(=S)ss2)cc1 [AOX, 5-(4-hydroxyphenyl)-3H-1,2-dithiole-3-thione]
Site IQ of complex I; AOX 2.5 to 20 μM, glutamate, malate, succinate, ATR
  lowest concentration showing an inhibitory effect on ROS production by site IQ: 2.5 µM
Site IQ of complex I; AOX 2.5 to 20 μM, glutamate, malate, succinate, ATR, read-out: estimated IC50 on ROS production by site IQ
  IC50: ~9.5 µM
Site IQ of complex I; fit of FIG. 21
  Hill coefficient: 2.616±0.5706
  Maximum (fit parameter): 554.045±19.73
  Minimum (fit parameter): −72.5272±68.64
Site IQ of complex I; fit of FIG. 21, read-out: IC50 (fit parameter)
  IC50: 9.47 ± 1.02 µM
Site IQ
  inhibition of ROS production in site IQ: strongly inhibit the ROS production by complex I
